How the values were obtained:
Type in all cases: cell-based, human
[1] = system: HL-60; assay: LDH release (cell membrane integrity), HL-60
Description: FIGS. 7A and 7B depict cell viability and growth rates for HL-60 cell line following taurolidine treatment, in terms of % trypan blue negative cells and % cell number, respectively. Cells were treated with various concentrations of taurolidine for 4 hours in AIM-V+0.01% BCS. After aliquots were collected for LDH assay, the remainder of the culture was rinsed in HBSS and resuspended in RPMI+10% BCS without taurolidine. Counts of trypan blue-negative cells (FIG. 7A), and total cell number (FIG. 7B), were recorded daily thereafter (with the measurement at Day 1 being made immediately after the 4 hour taurolidine treatment). Conditions were: no treatment (open circles); 25 μg/ml taurolidine (closed circles); 50 μg/ml taurolidine (open squares); 100 μg/ml taurolidine (closed squares); and vehicle alone (closed triangles). Doubling times were determined under each condition, and expressed as a percentage of the rate of doubling of untreated cells. These values are located to the right of the growth curves in (FIG. 7B). Cells were subcultured when they reached a concentration of 6×10^5 cells/ml. Data are mean±SEM of three experiments.
In these experiments, integrity of cell membranes following taurolidine treatment was assessed by exclusion of trypan blue and by measuring the release of LDH in MM6, K-562, HL-60, and REH cells. Since BCS contains significant amounts of LDH, these experiments were conducted on cells cultured in AIM-V+0.01% BCS. Four hour treatment of cells was conducted in AIM-V containing 0.01% BCS in order to allow subsequent LDH assay without interference from BCS (which occurs in when normal culture medium, containing 10% BCS, is used). Thus, MM6 cells (5×10^5 cells/ml) were treated with taurolidine for four hours in AIM-V+0.01% BCS, after which an aliquot of the cell suspension was removed for measurement of LDH release. A parallel aliquot of cells was lysed by three cycles of freeze/thaw and the quantity of LDH released was taken to be 100%. […]
^a LDH was measured immediately after four hour taurolidine treatment.

[2] = system: MM6 cells; assay: cell morphology / size (microscopy, flow cytometry FSC and SSC), MM6
Description: FIG. 12A, FIG. 12B, FIG. 12C, and FIG. 12D are flow cytometric analyses depicting changes in cell morphology following taurolidine treatment. MM6 and PBMC were treated for three hours with taurolidine, and then treated and untreated control cells were processed for flow cytometry. Monocytes in PBMC samples were identified by staining with FITC-conjugated anti-CD14, and lymphocytes by FITC-conjugated anti-CD3 and PE-conjugated anti-CD19. FIG. 12A represents untreated MM6 cells; FIG. 12B represents MM6 cells treated with 50 μg/ml taurolidine; FIG. 12C represents untreated PBMC; and FIG. 12D represents PBMC treated with 75 μg/ml taurolidine. M=monocytes; L=lymphocytes.
A Becton-Dickinson FACSCalibur instrument was used for flow cytometric analysis of cells. Assessment of cell diameter (forward scatter; FCS) and granularity (side scatter; SSC).was carried out on unfixed cells. Discrimination between lymphocytes and monocytes was made possible by their characteristic differences in FSC and SSC, and confirmed by staining monocytes with FITC-labeled anti-CD14 antibodies and lymphocytes with a combination of FITC-conjugated anti-CD3 and PE-conjugated anti-CD19. After incubation with taurolidine (with or without concomitant LPS treatment), cells were rinsed twice in phosphate-buffered saline containing 0.1% bovine serum albumin (PBSA) and 1×10^6 cells were resuspended in 0.1 ml PBSA. […]

[3] = system: GM5387; assay: subcellular-sized events by flow cytometry, GM5387; settings: GM5387, after taurolidine treatment
Description: Less than 0.1% of ECV304 or GM5387 cells were TUNEL-positive 6 hours after treatment with taurolidine or anisomycin (Table VIII). Therefore, neither of these agents induce rapid DNA fragmentation in these cell types. However, there was approximately a 70% increase in the number of subcellular-sized events recorded by flow cytometry after taurolidine treatment of these cells, indicating some effect of taurolidine on cell integrity. These cell fragments were not stained by propidium iodide, consistent with them being apoptotic bodies.

[4] = system: tissue factor (TF); assay: LPS-induced tissue factor (TF) expression in PBMC, ELISA
Description: FIG. 2A represents MM6 cells; FIG. 2B represents PBMC. The cells were induced with LPS (hatched bars: 100 ng/ml LPS in RPMI supplemented with 10% BCS (RPMI+10% BCS); solid bars: 10 ng/ml in AIM-V+0.01% BCS) in the presence of varying concentrations of taurolidine,or with a dilution of the vehicle equivalent to that given to cells receiving 100 μg/ml taurolidine. After four hours, cells were collected and lysates were prepared for TF ELISA. Data are expressed as percent of TF antigen measured in cells treated with LPS alone (no taurolidine or vehicle). Experiments were performed with duplicate samples and were repeated at least three times. Values shown are mean±SEM of all experiments.
For induction of TF or TNFα expression, MM6 cells or PBMC were cultured either in RPMI supplemented with 10% BCS or in AIM-V+0.01% BCS, and stimulated by adding LPS to final concentrations of 10 to 100 ng/ml. […] Except as noted, taurolidine and LPS were added to the cell cultures simultaneously. For TF determination, cells and culture media together were treated by adding Triton X-100 (1% final) and EDTA (7 mmol/L final), and the resulting lysates assayed by ELISA. […] For TNFα determination, cells were removed by centrifugation for 5 min at 250×g, and the supernatants were assayed by ELISA.

## O=S1(=O)CCN(CN2CCS(=O)(=O)NC2)CN1 [taurolidine, 4,4'-methylenebis(perhydro-1,2,4-thiadiazin 1,1-dioxide)]
[1]; HL-60, control 2.3±0.8%, 240 min
  LDH in culture medium, % of that released by completely lysed cells: 8.3±2.3%
[1]; Homo sapiens, HL-60, 50 μg/ml, 4 h, read-out: LDH (% of total)
  cytotoxicity at 50 µg/mL: 5%
[1]; Homo sapiens, HL-60, 100 μg/ml, 4 h, read-out: LDH (% of total)
  cytotoxicity at 100 µg/mL: 6%
[2]; MM6, 100 μg/ml taurolidine, 4 h
  cell size by microscopy: smaller than control cells
[2]; MM6, taurolidine 3 h
  decrease in FSC: approximately 30%
[3]
  increase in the number of subcellular-sized events: ~70%
[4]; PBMC, taurolidine 75 μg/ml, 4 h
  inhibition of LPS-induced TF expression: complete inhibition of TF expression
[4]; peripheral blood monocytes or cultured MM6 cells
  induction of TF in response to LPS (summary): strongly inhibited the induction of TF

— patent US6303596A, “Use of taurolidine for treatment of leukemias” (priority 2000, dated 2001)
